From US20250115600A1, “COVALENT MODIFIERS OF AKT1 AND USES THEREOF” (Terremoto Biosciences, Inc., priority 2022, published 2025)

Columns and labels:
AKT1 E17K [1] = molecular target: T1, AKT1 E17K (Homo sapiens (Human), UniProt P31749, E17K); experiment: Dissociation rate by intact protein LCMS after ARQ092 chase; type: binding; conditions: for AKT1 E17K t1/2: compound 1.5 μM, 2 hours at 37° C., then ARQ092 50 μM; for Off-rate Selectivity E17K/WT: ratio of t1/2
Method: (§1) AKT1 WT or AKT1 E17K (1 μM) were treated with a compound of Table 1 (1.5 μM) for 2 hours at 37° C., then ARQ092 (50 μM final concentration) was added to prevent aldehyde-containing compound rebinding after initial dissociation. At various timepoints, aliquots were removed and quenched with 5 mM NaBH4 for 5 min to capture the reversible imine through reductive amination. Reduction reactions were quenched by diluting the sample in equal volume acetonitrile+1% TFA, then analyzed by LCMS. Deconvoluted monoisotopic intensities of unmodified vs. compound-modified mass peaks were compared.
Target sequence in this assay (P31749 2-480 E17K): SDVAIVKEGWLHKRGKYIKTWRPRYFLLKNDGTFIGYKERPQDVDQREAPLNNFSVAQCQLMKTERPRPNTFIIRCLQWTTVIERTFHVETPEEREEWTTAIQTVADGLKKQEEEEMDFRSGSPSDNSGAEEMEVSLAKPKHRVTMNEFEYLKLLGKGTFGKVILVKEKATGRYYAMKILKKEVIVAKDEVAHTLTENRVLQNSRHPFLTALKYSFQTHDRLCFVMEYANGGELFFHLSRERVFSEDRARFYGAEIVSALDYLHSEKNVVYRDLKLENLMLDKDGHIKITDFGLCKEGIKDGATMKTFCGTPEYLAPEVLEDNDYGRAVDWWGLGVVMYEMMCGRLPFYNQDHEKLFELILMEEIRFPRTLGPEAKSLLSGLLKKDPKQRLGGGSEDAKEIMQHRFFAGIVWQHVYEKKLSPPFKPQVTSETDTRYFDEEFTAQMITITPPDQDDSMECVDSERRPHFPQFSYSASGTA

AKT1 WT [2] = molecular target: T2, AKT1 WT (Homo sapiens (Human), UniProt P31749); experiment: as above; type: binding; conditions: compound 1.5 μM, 2 hours at 37° C., then ARQ092 50 μM
Method: as §1
Target sequence in this assay (P31749 2-480): as the sequence (P31749 2-480 E17K) above, with K16E counted along it

AKT1 WT [3] = molecular target: T2, AKT1 WT; experiment: Live cell target engagement (NanoBRET) in HEK293 cells; type: cell-based; conditions: HEK293, 2 hours at 37° C.
Target sequence in this assay (P31749 whole entry): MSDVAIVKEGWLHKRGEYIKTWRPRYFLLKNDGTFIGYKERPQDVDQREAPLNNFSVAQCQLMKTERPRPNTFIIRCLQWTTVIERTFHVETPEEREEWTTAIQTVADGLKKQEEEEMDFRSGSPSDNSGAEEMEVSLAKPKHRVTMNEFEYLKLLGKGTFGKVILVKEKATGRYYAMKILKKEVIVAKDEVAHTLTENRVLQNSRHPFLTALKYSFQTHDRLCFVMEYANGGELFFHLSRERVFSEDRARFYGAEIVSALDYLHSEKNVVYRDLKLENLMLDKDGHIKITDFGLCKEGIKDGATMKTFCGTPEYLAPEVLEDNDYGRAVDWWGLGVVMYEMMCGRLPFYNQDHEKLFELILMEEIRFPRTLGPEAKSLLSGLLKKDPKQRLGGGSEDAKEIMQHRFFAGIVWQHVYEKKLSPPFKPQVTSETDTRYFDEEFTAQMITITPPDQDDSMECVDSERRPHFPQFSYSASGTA

AKT1 E17K mutant protein = AKT1 E17K mutant protein (Homo sapiens (Human), UniProt P31749, E17K); experiment: Intact mass spectrometry, covalent complex formation and ARQ-092 competition; type: binding; conditions: for covalent complex formation with AKT1 E17K mutant protein / covalent complex formation with AKT1 E17K mutant protein in presence of competitor: protein 1 μM, compound 1.5 μM, 2 hrs at 37° C., NaBH4 reduction; for covalent complex formation with AKT1 E17K mutant protein: absence of competitor; for covalent complex formation with AKT1 E17K mutant protein in presence of competitor: with ARQ092 (50 μM); for selectivity of complex formation, AKT1 E17K versus AKT1 WT: comparison of the spectra without competitor
AKT1 E17K mutant protein, sequence (P31749 2-480 E17K): as the sequence (P31749 2-480 E17K) above
Method: (§2) AKT1 WT or AKT1 E17K (1 μM) was treated with a compound from Table 1 (1.5 μM) for 2 hrs at 37° C., with and without ARQ092 (50 μM) competitor as a specificity control. Reversible imines were captured by reductive amination with 5 mM NaBH4 for 5 min. Reduction reactions were quenched by diluting the sample in equal volume acetonitrile+1% TFA, then analyzed by LCMS.
(§3) FIGS. 1 to 25 provide intact mass spectra for AKT1 WT protein and AKT1 E17K mutant protein after incubation with compounds of the present disclosure and subsequent borohydride reduction. […] Further, FIGS. 1 to 10, 12, and 14 to 25 each provide intact mass spectra following the incubation of an AKT1 protein with a compound of the present disclosure both in the absence of a competitor molecule (i.e., ARQ-092, a molecule known to bind to and inhibit the function of AKT1); and in the presence of a significant stoichiometric excess of a competitor molecule.

AKT1 WT [4] = molecular target: T2, AKT1 WT; experiment: as above; type: binding; conditions: protein 1 μM, compound 1.5 μM, 2 hrs at 37° C., NaBH4 reduction; for covalent complex formation with AKT1 WT protein: absence of competitor; for covalent complex formation with AKT1 WT protein in presence of competitor: with ARQ092 (50 μM)
Method: as §2, §3
Target sequence in this assay (P31749 2-480): as the sequence (P31749 2-480 E17K) above, with K16E counted along it

AKT1 E17K [5] = molecular target: T1, AKT1 E17K; experiment: Live cell target engagement (NanoBRET) in HEK293 cells; type: cell-based; conditions: for IC50: HEK293, 2 hours at 37° C.
Target sequence in this assay (P31749 whole entry E17K): as the sequence (P31749 whole entry) above, with E17K counted along it

AKT2 = AKT2 (Homo sapiens (Human), UniProt P31751); experiment: as above; type: cell-based; conditions: HEK293, 2 hours at 37° C.
AKT2, sequence (P31751 whole entry): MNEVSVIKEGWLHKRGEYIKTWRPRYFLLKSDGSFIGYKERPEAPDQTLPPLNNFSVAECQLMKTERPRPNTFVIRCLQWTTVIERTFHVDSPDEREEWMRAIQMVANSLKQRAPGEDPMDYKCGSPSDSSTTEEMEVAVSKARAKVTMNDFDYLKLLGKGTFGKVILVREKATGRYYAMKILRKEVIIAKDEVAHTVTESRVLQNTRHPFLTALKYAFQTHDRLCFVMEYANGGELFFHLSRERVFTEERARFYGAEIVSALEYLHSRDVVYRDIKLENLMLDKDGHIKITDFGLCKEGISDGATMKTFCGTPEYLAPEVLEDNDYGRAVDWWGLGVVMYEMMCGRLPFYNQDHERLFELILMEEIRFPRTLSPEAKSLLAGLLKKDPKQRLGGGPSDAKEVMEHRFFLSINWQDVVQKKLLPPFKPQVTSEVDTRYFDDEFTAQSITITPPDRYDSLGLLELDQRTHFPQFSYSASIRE

## Nc1ncccc1-c1nc2ccc(-c3ccccc3)nc2n1-c1ccc(C2(NC(=O)Cc3ccc(C=O)c(O)c3F)CC2)cc1 [Compound 31, N-(1-{4-[2-(2-aminopyridin-3-yl)-5-phenylimidazo[4,5-b]pyridin-3-yl]phenyl}cyclopropyl)-2-(2-fluoro-4-formyl-3-hydroxyphenyl)acetamide]
AKT1 E17K [1]
  AKT1 E17K t1/2: 2.52 h
  Off-rate Selectivity E17K/WT: 1.8
AKT1 WT [2]
  AKT1 (WT) t1/2: 1.43 h
AKT1 WT [3]
  IC50: < 0.1 µM
AKT1 E17K mutant protein
  covalent complex formation with AKT1 E17K mutant protein: significant presence of a covalent complex
  covalent complex formation with AKT1 E17K mutant protein in presence of competitor: Essentially little to no covalent complex formation
AKT1 WT [4]
  covalent complex formation with AKT1 WT protein: presence of a covalent complex
  covalent complex formation with AKT1 WT protein in presence of competitor: Essentially little to no covalent complex formation
AKT1 E17K [5]
  AKT1 E17K IC50: Selectivity vs AKT1 WT: 1.4
  AKT1 E17K IC50: Selectivity vs AKT2: 5.8
  IC50: < 0.1 µM
AKT2
  IC50: < 0.1 µM

## Nc1ncccc1-c1nc2ccc(-c3ccccc3)nc2n1-c1ccc(CNC(=O)c2ccc(O)c(C=O)c2)cc1 [Compound 73, N-(4-(2-(2-aminopyridin-3-yl)-5-phenyl-3H-imidazo[4,5-b]pyridin-3-yl)benzyl)-3-formyl-4-hydroxybenzamide]
AKT1 E17K [1]
  AKT1 E17K t1/2: 1.57 h
  Off-rate Selectivity E17K/WT: 3.8
AKT1 WT [2]
  AKT1 (WT) t1/2: 0.417 h
AKT1 WT [3]
  IC50: < 0.1 µM
AKT1 E17K mutant protein
  selectivity of complex formation, AKT1 E17K versus AKT1 WT: selective for complex formation with AKT1 E17K
  covalent complex formation with AKT1 E17K mutant protein: presence of a covalent complex
AKT1 WT [4]
  covalent complex formation with AKT1 WT protein: small level of a covalent complex
AKT1 E17K [5]
  AKT1 E17K IC50: Selectivity vs AKT1 WT: 2.1
  AKT1 E17K IC50: Selectivity vs AKT2: 22
  IC50: < 0.1 µM
AKT2
  IC50: 0.1 to 0.5 µM

## Nc1ncccc1-c1nc2ccc(-c3ccccc3)nc2n1-c1ccc(CNCCc2ccc(C=O)c(O)c2F)cc1 [Compound 122, 4-{2-[({4-[2-(2-aminopyridin-3-yl)-5-phenylimidazo[4,5-b]pyridin-3-yl]phenyl}methyl)amino]ethyl}-3-fluoro-2-hydroxybenzaldehyde]
AKT1 WT [3]
  IC50: < 0.1 µM
AKT1 E17K mutant protein
  covalent complex formation with AKT1 E17K mutant protein: presence of covalent complex
  covalent complex formation with AKT1 E17K mutant protein in presence of competitor: Essentially no covalent complex formation
AKT1 WT [4]
  covalent complex formation with AKT1 WT protein: presence of covalent complex
  covalent complex formation with AKT1 WT protein in presence of competitor: Essentially no covalent complex formation
AKT1 E17K [5]
  AKT1 E17K IC50: Selectivity vs AKT1 WT: 1.3
  AKT1 E17K IC50: Selectivity vs AKT2: 3.2
  IC50: < 0.1 µM
AKT2
  IC50: < 0.1 µM

## Nc1ncccc1-c1nc2ccc(-c3ccccc3)nc2n1-c1ccc(CNC(=O)Cc2ccc(C=O)c(O)c2)cc1 [Compound 132, N-(4-(2-(2-aminopyridin-3-yl)-5-phenyl-3H-imidazo[4,5-b]pyridin-3-yl)benzyl)-2-(4-formyl-3-hydroxyphenyl)acetamide]
AKT1 WT [3]
  IC50: < 0.1 µM
AKT1 E17K mutant protein
  covalent complex formation with AKT1 E17K mutant protein: presence of covalent complex
  covalent complex formation with AKT1 E17K mutant protein in presence of competitor: Essentially no covalent complex formation
AKT1 WT [4]
  covalent complex formation with AKT1 WT protein: presence of covalent complex
  covalent complex formation with AKT1 WT protein in presence of competitor: Essentially no covalent complex formation
AKT1 E17K [5]
  AKT1 E17K IC50: Selectivity vs AKT1 WT: 3.2
  AKT1 E17K IC50: Selectivity vs AKT2: 23
  IC50: < 0.1 µM
AKT2
  IC50: 0.1 to 0.5 µM

## Cc1ccc2nc(-c3cccnc3N)n(-c3ccc(C4(NC(=O)Cc5ccc(C=O)c(O)c5F)CC4)cc3)c2n1 [Compound 139, N-(1-{4-[2-(2-aminopyridin-3-yl)-5-methylimidazo[4,5-b]pyridin-3-yl]phenyl}cyclopropyl)-2-(2-fluoro-4-formyl-3-hydroxyphenyl)acetamide]
AKT1 WT [2]
  AKT1 (WT) t1/2: 0.797 h
AKT1 WT [3]
  IC50: < 0.1 µM
AKT1 E17K mutant protein
  selectivity of complex formation, AKT1 E17K versus AKT1 WT: selective for complex formation with AKT1 E17K
  covalent complex formation with AKT1 E17K mutant protein: significant presence of a covalent complex
  covalent complex formation with AKT1 E17K mutant protein in presence of competitor: lower level of covalent complex formation
AKT1 WT [4]
  covalent complex formation with AKT1 WT protein: presence of a covalent complex
  covalent complex formation with AKT1 WT protein in presence of competitor: Essentially no covalent complex formation
AKT1 E17K [5]
  AKT1 E17K IC50: Selectivity vs AKT1 WT: 1.7
  AKT1 E17K IC50: Selectivity vs AKT2: 20
  IC50: < 0.1 µM
AKT2
  IC50: 0.1 to 0.5 µM

## Nc1ncccc1-c1nc2ccc(N3CCOCC3)nc2n1-c1ccc(C2(NC(=O)Cc3ccc(C=O)c(O)c3F)CC2)cc1 [Compound 140, N-(1-{4-[2-(2-aminopyridin-3-yl)-5-(morpholin-4-yl)imidazo[4,5-b]pyridin-3-yl]phenyl}cyclopropyl)-2-(2-fluoro-4-formyl-3-hydroxyphenyl)acetamide]
AKT1 WT [3]
  IC50: < 0.1 µM
AKT1 E17K mutant protein
  covalent complex formation with AKT1 E17K mutant protein: significant presence of a covalent complex
  covalent complex formation with AKT1 E17K mutant protein in presence of competitor: Essentially no covalent complex formation
AKT1 WT [4]
  covalent complex formation with AKT1 WT protein: presence of a covalent complex
  covalent complex formation with AKT1 WT protein in presence of competitor: Essentially no covalent complex formation
AKT1 E17K [5]
  AKT1 E17K IC50: Selectivity vs AKT1 WT: 1.4
  AKT1 E17K IC50: Selectivity vs AKT2: 10
  IC50: < 0.1 µM
AKT2
  IC50: 0.1 to 0.5 µM

## Nc1ncccc1-c1nc2ccc(-n3cccn3)nc2n1-c1ccc(C2(NC(=O)Cc3ccc(C=O)c(O)c3F)CC2)cc1 [Compound 141, N-(1-{4-[2-(2-aminopyridin-3-yl)-5-(pyrazol-1-yl)imidazo[4,5-b]pyridin-3-yl]phenyl}cyclopropyl)-2-(2-fluoro-4-formyl-3-hydroxyphenyl)acetamide]
AKT1 WT [3]
  IC50: < 0.1 µM
AKT1 E17K mutant protein
  selectivity of complex formation, AKT1 E17K versus AKT1 WT: selective for complex formation with AKT1 E17K
  covalent complex formation with AKT1 E17K mutant protein: significant presence of a covalent complex
  covalent complex formation with AKT1 E17K mutant protein in presence of competitor: Essentially no covalent complex formation
AKT1 WT [4]
  covalent complex formation with AKT1 WT protein: presence of a covalent complex
  covalent complex formation with AKT1 WT protein in presence of competitor: Essentially no covalent complex formation
AKT1 E17K [5]
  AKT1 E17K IC50: Selectivity vs AKT1 WT: 1.2
  AKT1 E17K IC50: Selectivity vs AKT2: 4.4
  IC50: < 0.1 µM
AKT2
  IC50: < 0.1 µM

## Nc1ncccc1-c1nc2ccc(-c3cccc(N4CCOCC4)c3)nc2n1-c1ccc(CNC(=O)c2ccc(O)c(C=O)c2)cc1 [Example 20, N-(4-(2-(2-aminopyridin-3-yl)-5-(3-morpholinophenyl)-3H-imidazo[4,5-b]pyridin-3-yl)benzyl)-3-formyl-4-hydroxybenzamide]
AKT1 WT [3]
  IC50: < 0.1 µM
AKT1 E17K mutant protein
  selectivity of complex formation, AKT1 E17K versus AKT1 WT: selective for complex formation with AKT1 E17K
  covalent complex formation with AKT1 E17K mutant protein: significant presence of a covalent complex
  covalent complex formation with AKT1 E17K mutant protein in presence of competitor: Essentially no covalent complex formation
AKT1 WT [4]
  covalent complex formation with AKT1 WT protein: presence of a covalent complex
  covalent complex formation with AKT1 WT protein in presence of competitor: Essentially no covalent complex formation
AKT1 E17K [5]
  AKT1 E17K IC50: Selectivity vs AKT1 WT: 2
  AKT1 E17K IC50: Selectivity vs AKT2: 6
  IC50: < 0.1 µM
AKT2
  IC50: < 0.1 µM
